From patent US20040228930A1, “Treatment for hemorrhagic shock” (priority 2002, published 2004)

Columns and labels:
Type in all cases: in vivo
mice subjected to HS/R [1] = experiment: Serum ALT (liver injury) in mice subjected to HS/R
Method: (§1) Hemorrhagic shock was induced in mice as follows: C57/BL6 or il-10^−/− mice (Jackson Laboratories) (n=3/group) weighing 20-26 grams were anesthetized with pentobarbital (70 mg/kg; IP). The right and left femoral arteries were cannulated. The left arterial catheter was connected to a monitor to follow MAP and heart rate. Over 10 minutes, blood was withdrawn via the right catheter while monitoring blood pressure to achieve an MAP of 25 mmHg. Blood was withdrawn and returned to the animal as necessary in order to maintain a MAP of 25 mmHg. Sham animals were cannulated but not subjected to hemorrhage. At the end of the shock period (90-150 minutes), mice were resuscitated with the shed blood plus two times that volume with Ringer's lactate solution over 15-30 minutes. Animals were sacrificed 4-24 hours following the initiation of resuscitation and blood, liver, lungs, and intestines were collected.
(§2) A colorimetric analysis for serum alanine aminotransferase (ALT) level was used to determine whether liver injury occurred in mice subjected to HS/R. The alanine aminotransferase test is one of a group of tests known as liver function tests and is used to monitor damage to the liver. Alanine aminotransferase is an enzyme that is normally expressed in the liver and under normal circumstances is present in serum samples at very low levels. Increased levels of ALT in the serum are indicative of liver cell death and/or liver failure.
Mice were exposed to CO at a concentration of 250 ppm. Briefly, 1% CO in air was mixed with air (21% oxygen) in a stainless steel mixing cylinder and then directed into a 3.70 ft^3 glass exposure chamber at a flow rate of 12 L/min. A CO analyzer (Interscan, Chatsworth, Calif.) was used to measure CO levels continuously in the chamber. CO concentrations were maintained at 250 ppm at all times. Mice were placed in the exposure chamber as required. […]

IL-6 = experiment: Serum IL-6 by ELISA in mice subjected to HS/R; details: CO 250 ppm throughout HS/R, 4 hours after resuscitation, P<0.05 vs untreated HS/R mice
Method: as §1
(§3) Serum levels of the cytokines interleukin-6 (IL-6), tumor necrosis factor alpha (TNF-α), and interleukin-10 (IL-10) were determined by enzyme-linked immunosorbent assay (ELISA) (R&D systems) according to the manufacturer's instructions. These cytokines were measured because they mediate inflammation. Levels of pro-inflammatory cytokines can increase following hemorrhagic shock and can exacerbate hemodynamics and contribute to the development of multiple organ dysfunction. […]

mice subjected to HS/R [2] = experiment: Lung myeloperoxidase (MPO) activity in mice subjected to HS/R
[3] = test system: il-10−/− mice subjected to HS/R; experiment: Serum ALT in il-10−/− mice subjected to HS/R
Method: as §1
as §2, with “Increased levels of ALT in the serum are indicative of liver cell death and/or liver failure.” left out

[4] = test system: hemorrhage-induced liver hypoxia; experiment: EF5 hypoxic imaging of liver in hemorrhaged mice
Method: as §1
The technique of observing uptake of EF5 (2-[2-nitro-1H-imidazol-1-yl]-N-(2,2,3,3,3-pentafluoropropyl) acetamide) to monitor tissue hypoxia is well established and reliable. […] Intensity of staining was determined by measuring mean fluorescence in 10 different sections per animal (n=5 per group; MetaMorph®). […] These forms of the compound bind irreversibly to proteins within the cell, which can then be detected by immunohistochemistry. […]

IL-10 = experiment: Serum IL-10 by ELISA in mice subjected to HS/R; details: CO 250 ppm throughout HS/R, 4 hours after resuscitation, P<0.05 vs sham and shock controls
Method: as §1, §3

[5] = test system: il-10−/− mice subjected to HS/R; experiment: Lung MPO activity in il-10−/− mice subjected to HS/R
mice subjected to HS/R [6] = experiment: Intestinal histology (H&E) in mice subjected to HS/R; details: CO 250 ppm throughout HS/R, 4 hours after resuscitation
Method: as §1
Harvested intestines were flushed and fixed in 2% paraformaldehyde for 2 hours and then 30% sucrose for 12 hours. Specimens were frozen slowly in cold 2-methylbutane. Sections were stained using hematoxylin and eosin (H&E) and architectural changes were evaluated.
Mice were exposed to CO at a concentration of 250 ppm. Briefly, 1% CO in air was mixed with air (21% oxygen) in a stainless steel mixing cylinder and then directed into a 3.70 ft^3 glass exposure chamber at a flow rate of 12 L/min. […]

[7] = CO 250 ppm throughout HS/R, 4 hours after resuscitation, P<0.05

Structure (SMILES): [C-]#[O+] [CO, carbon monoxide]
- serum ALT compared to untreated mice (mice subjected to HS/R [1]; [7]): significantly lowered
- serum ALT compared to untreated shocked mice (mice subjected to HS/R [1]; CO during resuscitation only, 24 hours after resuscitation): significantly lower
- protection against liver injury (mice subjected to HS/R [1]; CO initiated during resuscitation only, 4-hour time point following resuscitation (data not shown)): no demonstrable protection
- HS/R-induced increase in serum IL-6 (IL-6): significantly abrogated
- lung MPO activity compared to untreated mice (mice subjected to HS/R [2]; [7]): significantly lowered
- lung MPO activity (mice subjected to HS/R [2]; CO initiated during resuscitation only, after 4 hours): significantly improved
- protection against HS/R-induced liver injury (serum ALT) [3]: did not appear to protect
- liver hypoxia (EF5) compared to air-treated sham controls ([4]; CO-treated sham controls, 250 ppm): no increase
- increase in liver EF5 staining compared to air-treated sham controls ([4]; shocked mice, CO 250 ppm initiated at onset of shock, 90 minutes after initiation of shock, P<0.05 vs air-treated shocked mice): 3.7±0.7 fold
- increase in serum IL-10 levels in shocked mice (IL-10): 5.4 fold
- protection against HS/R-induced lung injury (lung MPO activity) [5]: did not appear to protect
- intestinal histology of CO-treated shocked mice (mice subjected to HS/R [6]): more closely resembled CO- and air-treated sham controls
